The text below walks through data of US12454525B2, “IL4I1 inhibitors and methods of use” (Merck Sharp & Dohme LLC, priority 2020, dated 2025).

For orientation: EC50 means the midpoint of the concentration-response curve.

The target of this assay is T1, recombinant IL4I1 (Homo sapiens, UniProt Q96RQ9).
T1 construct: purchased R&D Systems 5684-AO-020
T1 sequence (Q96RQ9 22-567): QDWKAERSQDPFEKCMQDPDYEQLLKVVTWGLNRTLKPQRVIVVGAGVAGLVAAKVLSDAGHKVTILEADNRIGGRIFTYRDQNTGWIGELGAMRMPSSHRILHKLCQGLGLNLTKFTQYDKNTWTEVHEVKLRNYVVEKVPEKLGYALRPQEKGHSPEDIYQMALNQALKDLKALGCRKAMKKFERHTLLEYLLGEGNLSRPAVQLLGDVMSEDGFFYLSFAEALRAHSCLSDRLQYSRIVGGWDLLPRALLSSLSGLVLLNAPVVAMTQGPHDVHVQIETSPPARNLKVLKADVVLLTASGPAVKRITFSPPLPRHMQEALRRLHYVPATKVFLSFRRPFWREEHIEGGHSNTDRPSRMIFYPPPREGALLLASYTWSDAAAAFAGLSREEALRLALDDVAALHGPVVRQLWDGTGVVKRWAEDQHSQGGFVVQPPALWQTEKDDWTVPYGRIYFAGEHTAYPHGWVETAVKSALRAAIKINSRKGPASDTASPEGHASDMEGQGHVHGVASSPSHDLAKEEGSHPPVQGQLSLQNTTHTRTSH
As to the kind of experiment: IL4I1 Enzymatic Assay (Amplex Red/HRP coupled H2O2 detection). In kind it is biochemical. The note with it: 240 min; four-hour pre-incubation with compound; 1 nM IL4I1, 1 mM each Phe/Tyr/Trp; ten-point titration; fluorescence readout; read-out: Potency EC50 (nM) (240 min). The procedure: Interleukin 4 inducible protein 1 (IL4I1) is an L-amino oxidase that catalyzes the oxidation of aromatic residues (Phe, Trp and Tyr): L-amino acid+H2O+O2→2-oxo acid+NH3+H2O2. Equal molar of H2O2 and the corresponding alpha-ketoacid are produced when IL4I1 and substrate are added. In this assay, the hydrogen peroxide generated by IL4I1 is then detected through a coupled reaction with Amplex Red (10-acetyl-3,7-dihydroxyphenoxazine) and […] (HRP) to produce Resorufin product that could be detected in the form of fluorescence signals. The assessment of the inhibitory effect of small molecules (EC50) on IL4I1 is measured by the effectiveness of the compounds to inhibit the production of H2O2.
Using this assay, the potency (EC50) of each compound was determined from a ten-point (1:3 serial dilution) titration curve using the following outlined procedure. To each well of a black flat-bottom Greiner (Cat #781076) 384 well-plate, 25 nL of compound (0.1% DMSO in final assay volume of 25 μL) was dispensed, followed by the addition of 12.5 μL of 1x assay buffer (50 mM Hepes 7.0 and 0.005% Tween20 (Sigma, Cat #P8341; low peroxide grade)) containing 2 nM of recombinant IL4I1 (R&D Systems, Cat #5684-AO-020). Plates were placed in an ambient temperature humidified chamber for a four-hour pre-incubation with compound. Subsequently, each reaction was initiated by the addition of 12.5 μL 1x assay buffer containing 2 mM of each aromatic amino acids (Phe/Tyr/Trp), 0.1 mM Amplex Red and 2 U/mL of HRP. The final reaction in each well of 25 μL consists of 1 nM of IL411, 1 mM of each residues (Phe, Tyr and Trp), 0.05 mM Amplex Red and 1 U/mL of HRP. It should be noted that the concentrations of Amplex Red and HRP used here are in excess such that the conversion of H2O2 to Resorufin product occurs instantaneously and non-rate limiting. Reactions were allowed to proceed for 120 minutes followed by fluorescence readout on a Spectramax with the following set parameters: 544 nm excitation/590 nm emission, 570 nm cutoff (EnVision is an alternative reader). Dose-response curves were generated by plotting percent effect (% product conversion; Y-axis) vs. Log10 compound concentrations (X-axis). EC50 values were calculated using a non-linear regression, four-parameters sigmoidal dose-response model and are shown in Table 16.
For `CC(=O)NC1CCc2ccc(Cn3c(=O)[nH]c4ccccc43)cc21` (single isomer, unassigned) [Example 45, N-(6-((2-oxo-2,3-dihydro-1H-benzo[d]imidazol-1-yl)methyl)-2,3-dihydro-1H-inden-1-yl)acetamide], the EC50 was 21 nM.

Take `CNC(=O)C1CCc2cc(Cn3c(=O)[nH]c4ccccc43)ccc21` (single isomer, unassigned) [Example 46, N-methyl-5-((2-oxo-2,3-dihydro-1H-benzo[d]imidazol-1-yl)methyl)-2,3-dihydro-1H-indene-1-carboxamide]: the EC50 came out at 9 nM.

As to `O=c1[nH]c2ccccc2n1Cc1ccc(Cn2nncc2CO)cc1` (single isomer, unassigned) [Example 81, 1-(4-((5-(hydroxymethyl)-1H-1,2,3-triazol-1-yl)methyl)benzyl)-1,3-dihydro-2H-benzo[d]imidazol-2-one], the EC50 amounted to 10 nM.

For the compound `O=C1CCCN1Cc1ccc(Cn2c(=O)[nH]c3ccc(F)cc32)cc1` (single isomer, unassigned) [Example 84, 6-fluoro-1-(4-((2-oxopyrrolidin-1-yl)methyl)benzyl)-1,3-dihydro-2H-benzo[d]imidazol-2-one], the EC50 was found to be 10 nM.

Take `O=C1CCCN1Cc1ccc(Cn2c(=O)[nH]c3cc(F)ccc32)cc1` (single isomer, unassigned) [Example 85, 5-fluoro-1-(4-((2-oxopyrrolidin-1-yl)methyl)benzyl)-1,3-dihydro-2H-benzo[d]imidazol-2-one]: the EC50 is 389 nM.

On to `Cc1ccc(C2CC2Cn2c(=O)[nH]c3ccccc32)nc1` (single isomer, unassigned) [Example 111, 1-((2-(5-methylpyridin-2-yl)cyclopropyl)methyl)-1,3-dihydro-2H-benzo[d]imidazol-2-one], for which the EC50 worked out at 4 nM.

As to `O=C1CCCN1Cc1ccc(Cn2c(=O)[nH]c3ccccc32)cc1` [Example 1, 1-(4-((2-oxopyrrolidin-1-yl)methyl)benzyl)-1,3-dihydro-2H-benzo[d]imidazol-2-one], the half-maximal effective concentration (EC50) was found to be 13 nM.

Turning to `O=C1C=CCN1Cc1ccc(Cn2c(=O)[nH]c3ccccc32)cc1` [Example 2, 1-(4-((2-oxo-2,5-dihydro-1H-pyrrol-1-yl)methyl)benzyl)-1,3-dihydro-2H-benzo[d]imidazol-2-one], the concentration for a half-maximal effect (EC50) came to 13 nM.

Regarding `O=c1[nH]c2ccccc2n1Cc1ccc(Cc2nnco2)cc1` [Example 3, 1-(4-((1,3,4-oxadiazol-2-yl)methyl)benzyl)-1,3-dihydro-2H-benzo[d]imidazol-2-one], the EC50 amounted to 53 nM.

Take `O=c1[nH]c2ccccc2n1Cc1ccc(Cc2nnco2)c(Cl)c1` [Example 4, 1-(4-((1,3,4-oxadiazol-2-yl)methyl)-3-chlorobenzyl)-1,3-dihydro-2H-benzo[d]imidazol-2-one]: the EC50 turned out to be 6 nM.

On to `COc1cc(CNC(C)=O)ccc1Cn1c(=O)[nH]c2ccccc21` [Example 5, N-(3-methoxy-4-((2-oxo-2,3-dihydro-1H-benzo[d]imidazol-1-yl)methyl)benzyl)acetamide], for which the EC50 came out at 15 nM.

For `CS(=O)(=O)NCc1ccc(Cn2c(=O)[nH]c3ccccc32)s1` [Example 6, N-((5-((2-oxo-2,3-dihydro-1H-benzo[d]imidazol-1-yl)methyl)thiophen-2-yl)methyl)methanesulfonamide], the EC50 was 6 nM.

With `COc1cc(Cn2c(=O)[nH]c3ccccc32)ccc1CNC(C)=O` [Example 7, N-({2-methoxy-4-[(2-oxo-2,3-dihydro-1H-benzimidazol-1-yl)methyl]phenyl}methyl)acetamide], the EC50 was 8 nM.

`O=C1CCCN1Cc1ccc(Cn2c(=O)[nH]c3ccccc32)c(F)c1` [Example 8, 1-({2-fluoro-4-[(2-oxopyrrolidin-1-yl)methyl]phenyl}methyl)-1,3-dihydro-2H-benzimidazol-2-one]: the EC50 was 11 nM.

On to `O=C1CCCN1Cc1ccc(Cn2c(=O)[nH]c3ccccc32)cc1F` [Example 9, 1-({3-fluoro-4-[(2-oxopyrrolidin-1-yl)methyl]phenyl}methyl)-1,3-dihydro-2H-benzimidazol-2-one], for which the EC50 is 16 nM.

`O=C1NCc2ccc(Cn3c(=O)[nH]c4ccccc43)cc21` [Example 10, 1-[(3-oxo-2,3-dihydro-1H-isoindol-5-yl)methyl]-1,3-dihydro-2H-benzimidazol-2-one]: the EC50 was found to be 22 nM.

For the compound `CC(=O)NCc1ccc(Cn2c(=O)[nH]c3ccccc32)cc1` [Example 11, N-(4-((2-oxo-2,3-dihydro-1H-benzo[d]imidazol-1-yl)methyl)benzyl)acetamide], the 50% effective concentration (EC50) was 6 nM.

Consider `CS(=O)(=O)NCc1ccc(Cn2c(=O)[nH]c3ccccc32)cc1` [Example 12, N-(4-((2-oxo-2,3-dihydro-1H-benzo[d]imidazol-1-yl)methyl)benzyl)methanesulfonamide], for which the EC50 is 8 nM.

`CNC(=O)c1csc(Cn2c(=O)[nH]c3ccccc32)c1` [Example 13, N-methyl-5-((2-oxo-2,3-dihydro-1H-benzo[d]imidazol-1-yl)methyl)thiophene-3-carboxamide]: the EC50 worked out at 6 nM.

Turning to `O=C(NC1CC1)c1ccc(Cn2c(=O)[nH]c3ccccc32)s1` [Example 14], the EC50 was 2 nM.

For the compound `CC(=O)N[C@H](C)c1ccc(Cn2c(=O)[nH]c3ccccc32)cc1` [Example 15, (R)—N-(1-(4-((2-oxo-2,3-dihydro-1H-benzo[d]imidazol-1-yl)methyl)phenyl)ethyl)acetamide], the EC50 was 19 nM.

Turning to `CC[C@@H](NC(C)=O)c1ccc(Cn2c(=O)[nH]c3ccccc32)cc1` [Example 16, (R)-N-(1-(4-((2-oxo-2,3-dihydro-1H-benzo[d]imidazol-1-yl)methyl)phenyl)propyl)acetamide], the concentration for a half-maximal effect (EC50) stood at 24 nM.

Take `CNC(=O)c1cc(Cn2c(=O)[nH]c3ccccc32)ccc1OC` [Example 17, 2-methoxy-N-methyl-5-((2-oxo-2,3-dihydro-1H-benzo[d]imidazol-1-yl)methyl)benzamide]: the EC50 came out at 12 nM.

For `O=C1CCCN1Cc1ccc(Cn2c(=O)[nH]c3ccccc32)cc1Cl` [Example 18, 1-(3-chloro-4-((2-oxopyrrolidin-1-yl)methyl)benzyl)-1,3-dihydro-2H-benzo[d]imidazol-2-one], the EC50 is 8 nM.

Regarding `O=C1CCCN1Cc1ccc(Cn2c(=O)[nH]c3ccccc32)cc1I` [Example 19, 1-(3-iodo-4-((2-oxopyrrolidin-1-yl)methyl)benzyl)-1,3-dihydro-2H-benzo[d]imidazol-2-one], the EC50 was 14 nM.

For the compound `O=c1[nH]c2ccccc2n1Cc1ccc(CN2CCOCS2(=O)=O)cc1` [Example 20, 1-(4-((3,3-dioxido-1,3,4-oxathiazinan-4-yl)methyl)benzyl)-1,3-dihydro-2H-benzo[d]imidazol-2-one], the EC50 worked out at 7 nM.

Regarding `CN(Cc1ccc(Cn2c(=O)[nH]c3ccccc32)cc1)S(C)(=O)=O` [Example 21, N-methyl-N-({4-[(2-oxo-2,3-dihydro-1H-benzimidazol-1-yl)methyl]phenyl}methyl) methanesulfonamide], the half-maximal effective concentration (EC50) came out at 8 nM.

`O=C1CC2(CC2)CN1Cc1ccc(Cn2c(=O)[nH]c3ccccc32)cc1` [Example 22, 1-({4-[(6-oxo-5-azaspiro[2.4]heptan-5-yl)methyl]phenyl}methyl)-1,3-dihydro-2H-benzimidazol-2-one]: the EC50 turned out to be 8 nM.
